pIC50: −log10 of the molar value.
Legend:
[1] = molecular target: T1, human Menin and N-terminal portion of human MLL (amino acids 4-43) (Homo sapiens, UniProt O00255); assay: Menin-MLL competition assay (HTRF); assay type: binding; conditions: 1 hr incubation
T1 construct: H-FL-Menin diluted to 4 nM in assay buffer
T1 sequence (O00255 1-610): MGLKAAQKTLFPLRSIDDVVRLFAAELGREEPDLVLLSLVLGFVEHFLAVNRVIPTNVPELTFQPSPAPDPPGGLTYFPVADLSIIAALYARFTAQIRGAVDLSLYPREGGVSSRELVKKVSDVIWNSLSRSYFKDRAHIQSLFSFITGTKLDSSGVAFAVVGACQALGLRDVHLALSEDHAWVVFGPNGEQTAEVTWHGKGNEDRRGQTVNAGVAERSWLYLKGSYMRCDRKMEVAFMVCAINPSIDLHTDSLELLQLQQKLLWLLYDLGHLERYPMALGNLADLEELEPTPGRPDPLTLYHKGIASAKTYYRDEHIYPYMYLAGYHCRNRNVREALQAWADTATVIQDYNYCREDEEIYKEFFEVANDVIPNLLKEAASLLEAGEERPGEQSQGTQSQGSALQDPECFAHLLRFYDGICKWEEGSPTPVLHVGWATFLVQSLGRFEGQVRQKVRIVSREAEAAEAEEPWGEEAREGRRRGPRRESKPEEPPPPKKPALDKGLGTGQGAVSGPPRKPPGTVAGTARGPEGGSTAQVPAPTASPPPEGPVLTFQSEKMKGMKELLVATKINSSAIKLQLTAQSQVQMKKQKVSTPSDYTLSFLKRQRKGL
Description: Menin-MLL is a competition assay between human Menin and N-terminal portion of human MLL representing amino acids 4-43 of the protein. The interaction between Menin and MLL peptide was monitored by HTRF employing Terbium labeled anti-His6 antibody directed to the N-terminal His6-tag on recombinant Menin and FITC group covalently attached to the MLL peptide. The N-terminal fragment of MLL, retained in all MLL fusion proteins, is involved in the interactions with Menin, and this protein-protein interaction is critical for the MLL fusion proteins mediated leukemogenic transformations.
For IC50 determination test compounds were prepared as 10 mM DMSO stock solutions. Considering DMSO as the vehicle in the assay system. Lower sub-stocks of 50 μM were prepared from the 10 mM stock solution. To test the compounds in assay, 3.16-fold serial dilutions are made in 100% DMSO. Mid-stock of 50×compounds (50 μM) were serially diluted (3.16 fold) in 100% DMSO in Polypropylene plate. In assay plate 1 micro-litre of the previously prepared compound dilution was stamped. H-FL-Menin diluted to 4 nM in assay buffer (50 mM Tris-HCl, pH 7.4, 50 mM NaCl, freshly prepared 1 mM DTT, 0.01% BSA, 0.005% Triton X-100) was pre-incubated with 8 nM anti-His6-Tb for 30 min at room temperature. FITC-MLL-4-43 was diluted to 2 nM in assay buffer and 25 μL was dispensed into each well of the assay plate followed by addition of 25 μl of pre-incubated H-FL-Menin and anti-His6-Tb mixture. Final concentration H-FL-Menin diluted to 1 nM in assay plate with 2 nM anti-His6-Tb and 1 nM FITC-MLL-4-43. After 1 hr incubation at room temperature, the HTRF signal was measured on the Spark multi-label plate reader. Resulting data were captured as a ratio of RFU520/RFU485×1000. The max values were obtained from 0% inhibition in presence of 2% DMSO and the min. values were 100% inhibition in presence of 1 μM reference compound.

[2] = molecular target: hERG (Homo sapiens, UniProt Q12809); assay: Patch clamp assay (hERG tail currents, whole-cell)
Chain of hERG (Q12809 whole entry): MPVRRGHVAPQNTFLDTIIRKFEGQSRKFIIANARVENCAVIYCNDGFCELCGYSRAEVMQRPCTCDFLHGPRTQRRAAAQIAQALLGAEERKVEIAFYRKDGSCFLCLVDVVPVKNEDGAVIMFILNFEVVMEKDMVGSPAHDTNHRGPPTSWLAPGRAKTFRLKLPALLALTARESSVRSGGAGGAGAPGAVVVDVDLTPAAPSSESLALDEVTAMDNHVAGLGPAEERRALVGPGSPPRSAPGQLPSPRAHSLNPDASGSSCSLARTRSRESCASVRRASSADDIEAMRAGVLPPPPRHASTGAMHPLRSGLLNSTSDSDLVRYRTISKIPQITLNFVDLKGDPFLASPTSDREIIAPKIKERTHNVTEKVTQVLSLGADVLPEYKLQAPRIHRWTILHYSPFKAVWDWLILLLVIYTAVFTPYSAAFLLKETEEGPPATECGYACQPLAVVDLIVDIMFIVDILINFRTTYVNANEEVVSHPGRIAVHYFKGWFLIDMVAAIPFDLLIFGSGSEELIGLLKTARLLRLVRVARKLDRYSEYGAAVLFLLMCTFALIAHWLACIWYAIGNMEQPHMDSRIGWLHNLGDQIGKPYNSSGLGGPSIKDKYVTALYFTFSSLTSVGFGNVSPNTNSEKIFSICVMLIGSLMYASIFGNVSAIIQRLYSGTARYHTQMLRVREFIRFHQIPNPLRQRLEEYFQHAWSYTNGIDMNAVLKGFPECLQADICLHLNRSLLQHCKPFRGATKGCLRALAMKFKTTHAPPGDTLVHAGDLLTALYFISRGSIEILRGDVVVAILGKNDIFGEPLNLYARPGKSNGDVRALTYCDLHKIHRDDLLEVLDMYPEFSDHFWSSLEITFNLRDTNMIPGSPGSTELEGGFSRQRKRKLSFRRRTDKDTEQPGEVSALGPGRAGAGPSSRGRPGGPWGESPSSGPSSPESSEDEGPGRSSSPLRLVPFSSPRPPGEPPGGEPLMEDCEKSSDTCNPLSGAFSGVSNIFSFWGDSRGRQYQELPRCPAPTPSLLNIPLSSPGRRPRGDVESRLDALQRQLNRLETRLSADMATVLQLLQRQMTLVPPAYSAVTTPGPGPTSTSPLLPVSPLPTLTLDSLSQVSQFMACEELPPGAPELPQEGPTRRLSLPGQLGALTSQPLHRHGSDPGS

Compound | pIC50 [1] | hERG % Remaining ([2]; 10 μM compound) | hERG % Remaining ([2]; 30 μM compound) | hERG % Remaining ([2]; 1 μM compound) | hERG % Remaining ([2]; 3 μM compound) | hERG % Remaining ([2]; 100 μM compound)
CCN(C(=O)c1cc(F)ccc1Oc1cncnc1N1CC2(CCN(C[C@@H]3CC[C@@H](NS(C)(=O)=O)CO3)CC2)C1)C(C)C [Example 1, N-Ethyl-5-fluoro-N-isopropyl-2-((4-(7-(((2S,5R)-5-(methylsulfonamido)tetrahydro-2H-pyran-2-yl)methyl)-2,7-diazaspiro[3.5]nonan-2-yl)pyrimidin-5-yl)oxy)benzamide] | > 7.00 | +++ (≥66%) | ++ (233% and ≤66%) | – | – | –
CCN(C(=O)c1cc(F)ccc1Oc1cncnc1N1CC2(CCN(C[C@@H]3CC[C@@H](NS(=O)(=O)CC)CO3)CC2)C1)C(C)C [Example 2, N-Ethyl-2-((4-(7-(((2S,5R)-5-(ethylsulfonamido)tetrahydro-2H-pyran-2-yl)methyl)-2,7-diazaspiro[3.5]nonan-2-yl)pyrimidin-5-yl)oxy)-5-fluoro-N-isopropylbenzamide] | > 7.00 | +++ (≥66%) | +++ (≥66%) | – | – | –
CCN(C(=O)c1cc(F)ccc1Oc1cncnc1N1CC2(CCN(C[C@@H]3CC[C@@H](NS(=O)(=O)C4CC4)CO3)CC2)C1)C(C)C [Example 4, 2-((4-(7-(((2S,5R)-5-(Cyclopropanesulfonamido)tetrahydro-2H-pyran-2-yl)methyl)-2,7-diazaspiro[3.5]nonan-2-yl)pyrimidin-5-yl)oxy)-N-ethyl-5-fluoro-N-isopropylbenzamide] | > 7.00 | +++ (≥66%) | +++ (≥66%) | – | – | –
CCN(C(=O)c1cc(F)ccc1Oc1cncnc1N1CC2(CCN(C[C@@H]3CC[C@@H](NS(=O)(=O)C4CCC4)CO3)CC2)C1)C(C)C [Example 6, 2-((4-(7-(((2S,5R)-5-(Cyclobutanesulfonamido)tetrahydro-2H-pyran-2-yl)methyl)-2,7-diazaspiro[3.5]nonan-2-yl)pyrimidin-5-yl)oxy)-N-ethyl-5-fluoro-N-isopropylbenzamide] | > 7.00 | +++ (≥66%) | ++ (233% and ≤66%) | – | – | –
CC(C)N(C(=O)c1cc(F)ccc1Oc1cncnc1N1CC2(CCN(C[C@@H]3CC[C@@H](NS(C)(=O)=O)CO3)CC2)C1)C(C)C [Example 12, 5-Fluoro-N,N-diisopropyl-2-((4-(7-(((2S,5R)-5-(methylsulfonamido)tetrahydro-2H-pyran-2-yl)methyl)-2,7-diazaspiro[3.5]nonan-2-yl)pyrimidin-5-yl)oxy)benzamide] | > 7.00 | +++ (≥66%) | +++ (≥66%) | +++ (≥66%) | +++ (≥66%) | ++ (233% and ≤66%)
CCS(=O)(=O)N[C@@H]1CC[C@@H](CN2CCC3(CC2)CN(c2ncncc2Oc2ccc(F)cc2C(=O)N(C(C)C)C(C)C)C3)OC1 [Example 13, 2-((4-(7-(((2S,5R)-5-(Ethylsulfonamido)tetrahydro-2H-pyran-2-yl)methyl)-2,7-diazaspiro[3.5]nonan-2-yl)pyrimidin-5-yl)oxy)-5-fluoro-N,N-diisopropylbenzamide] | > 7.00 | +++ (≥66%) | ++ (233% and ≤66%) | +++ (≥66%) | +++ (≥66%) | ++ (233% and ≤66%)
CC(C)N(C(=O)c1cc(F)ccc1Oc1cncnc1N1CC2(CCN(C[C@@H]3CC[C@@H](NS(=O)(=O)C(C)C)CO3)CC2)C1)C(C)C [Example 14, 5-Fluoro-N,N-diisopropyl-2-((4-(7-(((2S,5R)-5-((1-methylethyl)sulfonamido)tetrahydro-2H-pyran-2-yl)methyl)-2,7-diazaspiro[3.5]nonan-2-yl)pyrimidin-5-yl)oxy)benzamide] | > 7.00 | +++ (≥66%) | ++ (233% and ≤66%) | – | +++ (≥66%) | + (<33%)
CC(C)N(C(=O)c1cc(F)ccc1Oc1cncnc1N1CC2(CCN(C[C@@H]3CC[C@@H](NS(=O)(=O)C4CC4)CO3)CC2)C1)C(C)C [Example 15, 2-((4-(7-(((2S,5R)-5-(Cyclopropanesulfonamido)tetrahydro-2H-pyran-2-yl)methyl)-2,7-diazaspiro[3.5]nonan-2-yl)pyrimidin-5-yl)oxy)-5-fluoro-N,N-diisopropylbenzamide] | > 7.00 | +++ (≥66%) | ++ (233% and ≤66%) | – | +++ (≥66%) | + (<33%)
CC(C)N(C(=O)c1cc(F)ccc1Oc1cncnc1N1CC2(CCN(C[C@@H]3CC[C@@H](NS(=O)(=O)C4COC4)CO3)CC2)C1)C(C)C [Example 16, 5-Fluoro-N,N-diisopropyl-2-((4-(7-(((2S,5R)-5-(oxetane-3-sulfonamido)tetrahydro-2H-pyran-2-yl)methyl)-2,7-diazaspiro[3.5]nonan-2-yl)pyrimidin-5-yl)oxy)benzamide] | > 7.00 | +++ (≥66%) | +++ (≥66%) | – | – | –
CCS(=O)(=O)N[C@@H]1CC[C@@H](CN2CCC3(CC2)CN(c2ncncc2Oc2ccc(F)cc2C(=O)N(C(C)C)C2CC2)C3)OC1 [Example 19, N-Cyclopropyl-2-((4-(7-(((2S,5R)-5-(ethylsulfonamido)tetrahydro-2H-pyran-2-yl)methyl)-2,7-diazaspiro[3.5]nonan-2-yl)pyrimidin-5-yl)oxy)-5-fluoro-N-isopropylbenzamide] | > 7.00 | +++ (≥66%) | ++ (233% and ≤66%) | – | – | –
CC(C)N(C(=O)c1cc(F)ccc1Oc1cncnc1N1CC2(CCN(C[C@@H]3CC[C@@H](NS(=O)(=O)C4CC4)CO3)CC2)C1)C1CC1 [Example 21, 2-((4-(7-(((2S,5R)-5-(Cyclopropanesulfonamido)tetrahydro-2H-pyran-2-yl)methyl)-2,7-diazaspiro[3.5]nonan-2-yl)pyrimidin-5-yl)oxy)-N-cyclopropyl-5-fluoro-N-isopropylbenzamide] | > 7.00 | ++ (233% and ≤66%) | + (<33%) | – | – | –
CCS(=O)(=O)N[C@@H]1CC[C@@H](CN2CCC3(CC2)CN(c2ncncc2Oc2ccc(F)cc2C(=O)N(C(C)C)[C@H]2CCOC2)C3)OC1 [Example 33, 2-((4-(7-(((2S,5R)-5-(Ethylsulfonamido)tetrahydro-2H-pyran-2-yl)methyl)-2,7-diazaspiro[3.5]nonan-2-yl)pyrimidin-5-yl)oxy)-5-fluoro-N-isopropyl-N-((S)-tetrahydrofuran-3-yl)benzamide] | > 7.00 | +++ (≥66%) | +++ (≥66%) | – | – | –

From patent US20240400564A1 (Syndax Pharmaceuticals, Inc, priority 2021, published 2024)
